Experimental data from patent US5378718A, “1,4-dihydropyridine derivatives” (Cedona Pharmaceuticals B.V., priority 1990, dated 1995).

Legend:
arterial blood pressure = test: Anesthetized rabbit experiments, lowering of arterial blood pressure; format: in vivo, New Zealand white rabbits; set-up: key: Inactive: No decrease or decrease less than 5%; Active: Decrease between 5 and 40%; Very Active: Decrease greater than 40%; conditions: end of 10 min i.v. infusion at highest dose tested (150-200 μg×kg^-1×min^-1), decrease as percentage of basal value
Procedure: […]
Animals Anesthesia and Surgical Procedures
New Zealand white rabbits (2.5-3 kg) were anesthetized (30 mg×kg^-1 pentobarbitone, i.v., supplemetal doses as needed). Tracheotomy was performed, and an intra-tracheal cannula was inserted. No artificial ventilation was applied and body temperature was maintained at 37°-38° C.
Left ventricular pressure (LVP) was measured (millar Mikro-Tip catheter via the right carotid artery with transducer in the left ventricle). The LVP signal was differentiated electronically to obtain the rate of change of LVP (LV dP/dt). The heart rate (HR) was derived from the LVP pulse signal. The jugular vein was cannulated for infusion of the test compounds. Aortic blood pressure (SAP and DAP) was monitored (Gould-Statham pressure transducer) by inserting a polyethylene catheter filled with heparin (50 IU×ml^-1) through the femoral artery into the abdominal aorta. Heparin (150 IU×kg^-1, i.v.) was administered to prevent blood clotting.
After completion of surgical procedures, the rabbits were allowed to recover for 15 minutes before drug administration was started.
Infusion of Test Compounds and Test Protocol
Drugs were infused at constant rate (0.5 ml×min^-1) for 10 minutes at various doses, resulting in a typical dose range of 2.0, 20.0 and 200 μg×kg^-1 ×min^-1 (2.5 kg rabbit).
Due to poor solubility, 1 mg×ml^-1 solutions of all the compounds tested were prepared in Intralipid^(R) 10%, containing 10% (v/v) dimethyl sulfoxide (DMSO). […] At the infusion of lower doses, the 1 mg×ml^-1 stock solutions were diluted with Intralipid^(R) 10%.
The presented data are based on the effects obtained at the end of the 10 min infusion period at the highest dose tested (150-200 μg×kg^-1 'min^-1).
The indicated ratings are referring to the effects (decrease, defined as percentage of basal value before infusion of the drug) on arterial blood pressure as follows: […]

contracted rat aorta = test: In vitro rat aorta assay, relaxation of KCl-contracted aorta strips; format: cell-based; conditions: rat thoracic aorta strips contracted with 50 mM KCl, 1.25 mM CaCl2; concentration at which residual contraction is 50% of maximum
Procedure: Strips of thoracial rat aortae (without aortic arch, helically cut; length 1-1.5 cm; width about 2 mm) were place in an organ bath [20 ml; Krebs Ringer medium bubbled with O2 /CO2 (95/5%) at 37` C.]. A resting tension of 0.5 g was applied and the preparations were equilibrated during 100 min (fresh buffer solution every 20 min). The strips were isotonically contracted with 50 mM KCl (equimolar part of NaCl in buffer omitted) in the presence of 1.25 mM CaCl2.
Drug-induced relaxation was tested at increasing concentration (half log steps), till maximal or full relaxation (corresponding to basal precontraction value of organ length) had been reached.
Responses were calculated as change in organ length relatively to maximal displacement by contraction, EC50 values corresponding to the drug concentration at which residual contraction is 50% of maximum.

Row | EC50 (contracted rat aorta) [nM] | Compound | Activity with regard to the lowering of blood pressure (arterial blood pressure)
1 |  | 2,6-Dimethyl-3-methyloxycarbonyl-5-methyloxycarbonyl-4-[2-(nitroxyhexyloxyphenyl)]-1,4-dihydropyridine [Example XXXI] | Active
2 |  | CCOC(=O)C1=C(C)NC(C)=C(C(=O)OCC)C1c1ccc(OC(=O)CCCO[N+](=O)[O-])cc1 [Example I, 3,5-Diethoxycarbonyl-2,6-dimethyl-4-[4-(3-nitroxypropyl)carbonyloxy]phenyl-1,4-dihydropyridine] | Active
3 | 59 | COC(=O)C1=C(C)NC(C)=C(C(=O)OC)C1c1ccccc1OCCO[N+](=O)[O-] [Example VII, 3,5-Dimethoxycarbonyl-2,6-dimethyl-4-[2-(2-nitroxy-ethoxy)phenyl]-1,4-dihydropyridine] | 
4 | 88 | COC(=O)C1=C(C)NC(C)=C(C(=O)OC)C1c1cccc(OC)c1OCCO[N+](=O)[O-] [Example XVII, 3,5-Dimethoxycarbonyl-2,6-dimethyl-4-[3-methoxy-2-(2-nitroxyethoxy)phenyl]-1,4-dihydropyridine×H2 O] | Active
5 |  | CCOc1cccc(C2C(C(=O)OC)=C(C)NC(C)=C2C(=O)OC)c1OCCO[N+](=O)[O-] [Example XVIII, 3,5-Dimethoxycarbonyl-2,6-dimethyl-4-[3-ethoxy-2-(2-nitroxyethoxy)phenyl]-1,4-dihydropyridine×H2 O] | Active
6 | 85 | COC(=O)C1=C(C)NC(C)=C(C(=O)OC)C1c1cc(Cl)ccc1OCCO[N+](=O)[O-] [Example XV] | Active
7 | 38 | CCOC(=O)C1=C(C)NC(C)=C(C(=O)OCC)C1c1ccccc1OCCOCCOCCO[N+](=O)[O-] [Example XX, 3,5-Diethoxycarbonyl-2,6-dimethyl-4-(2-{2-[2-(2-nitroxy-ethoxy)ethoxy]ethoxy}-phenyl)-1,4-dihydropyridine] | Active
8 | 14 | CCOC(=O)C1=C(C)NC(C)=C(C(=O)OCC)C1c1ccccc1OCCO[N+](=O)[O-] [Example XXI, 3,5-Diethoxycarbonyl-2,6-dimethyl-4-[2-(2-nitroxy-ethoxy)phenyl]-1,4-dihydropyridine] | 
9 | 60 | CCOC(=O)C1=C(C)NC(C)=C(C(=O)OCC)C1c1ccccc1OCC(C)(C)CO[N+](=O)[O-] [Example XXII, 3,5-Diethoxycarbonyl-2,6-dimethyl-4-[2-(2,2-dimethyl-3-nitroxypropoxy)-phenyl]-1,4-dihydropyridine] | 
10 | 28 | CCOC(=O)C1=C(C)NC(C)=C(C(=O)OC)C1c1ccccc1OCC(C)(C)CO[N+](=O)[O-] (stereo not shown) [Example XXIII, 2,6-Dimethyl-4-[2-(2,2-dimethyl-3-nitroxypropoxy)-phenyl]-3-ethoxycarbonyl-5-methoxycarbonyl-1,4-dihydro-pyridine×H2 O] | 
11 | 7.8 | CCOC(=O)C1=C(C)NC(C)=C(C(=O)OCC)C1c1ccccc1OC[C@H]1CC[C@H](CO[N+](=O)[O-])CC1 [Example XXIV, 3,5-Diethoxycarbonyl-2,6-dimethyl-4-[2-[(4-nitroxymethyl-(trans)-cyclohexyl)methoxy]phenyl]-1,4-dihydropyridine] | 
12 | 67 | CCOC(=O)C1=C(C)NC(C)=C(C(=O)OCC)C1c1ccccc1OCCCCCCCCCCO[N+](=O)[O-] [Example XXV, 3,5-Diethoxycarbonyl-2,6-dimethyl-4-[2-(10-nitroxy-decyloxy)phenyl]-1,4-dihydropyridine] | 
13 | 12 | CCOC(=O)C1=C(C)NC(C)=C(C(=O)OC)C1c1ccccc1OCCCO[N+](=O)[O-] (stereo not shown) [Example XXVI, 2,6-Dimethyl-3-ethoxycarbonyl-5-methoxycarbonyl-4-[2-(3-nitroxypropoxy)phenyl]-1,4-dihydropyridine] | 
14 | 5.7 | COC(=O)C1=C(C)NC(C)=C(C(=O)OC)C1c1ccccc1OCCCO[N+](=O)[O-] [Example XXVII, 3,5-Dimethoxycarbonyl-2,6-dimethyl-4-[2-(3-nitroxypropoxy)phenyl]-1,4-dihydropyridine] | 
15 | 7.7 | CCOC(=O)C1=C(C)NC(C)=C(C(=O)OCC)C1c1ccccc1OCCCO[N+](=O)[O-] [Example XXVIII] | 
16 | 9 | COC(=O)C1=C(C)NC(C)=C(C(=O)OC)C1c1ccccc1OCCCCCCO[N+](=O)[O-] [Example XXX, 3,5-Dimethoxycarbonyl-2,6-dimethyl-4-[2-(6-nitroxyhexyloxy)phenyl]-1,4-dihydropyridine] | 
17 | 6.5 | COC(=O)C1=C(C)NC(C)=C(C(=O)OC)C1c1ccccc1OC[C@H]1CC[C@H](CO[N+](=O)[O-])CC1 [Example XXXII, 3,5-Dimethoxycarbonyl-2,6-dimethyl-4-{2-[4-nitroxymethyl(trans)cyclohexylmethoxy]phenyl}-1,4-dihydropyridine] | 
18 | 16 | COC(=O)C1=C(C)NC(C)=C(C(=O)OC)C1c1ccccc1OCC(C)O[N+](=O)[O-] (stereo not shown) [Example XXXIII, 3,5-Dimethoxycarbonyl-2,6-dimethyl-4-{2-[2-nitroxypropyloxy)phenyl}-1,4-dihydropyridine] | 
19 | 5 | COC(=O)C1=C(C)NC(C)=C(C(=O)OC)C1c1ccccc1OCCCCCCCCO[N+](=O)[O-] [Example XXXV, 2,6-Dimethyl-3,5-dimethoxycarbonyl-4-[2-(8-nitroxyoctyloxy)phenyl]-1,4-dihydropyridine] | 
20 | 68 | COC(=O)C1=C(C)NC(C)=C(C(=O)OC)C1c1ccccc1OC1CCCCC1O[N+](=O)[O-] (stereo not shown) [Example XXXVII, 3,5-Dimethoxycarbonyl-2,6-dimethyl-4-[2-(2-nitroxycyclohexoxy)phenyl]-1,4-dihydropyridine×methanol] | 
21 | 75 | COC(=O)C1=C(C)NC(C)=C(C(=O)OC)C1c1ccccc1OC[C@@H](C)CO[N+](=O)[O-] [Example XXXVIII] | 
22 | 80 | COC(=O)C1=C(C)NC(C)=C(C(=O)OC)C1c1cc(Br)ccc1OCCO[N+](=O)[O-] [XIX, 4-[5-Bromo-2-(2-nitroxyethoxy)phenyl]-3,5-dimethoxy-carbonyl-2,6-dimethyl-1,4-dihydropyridine] | Active

Row | Compound | EC50 (contracted rat aorta) [nM] | Activity with regard to the lowering of blood pressure (arterial blood pressure)
23 | COC(=O)C1=C(C)NC(C)=C(C(=O)OC)C1c1cc([N+](=O)[O-])ccc1OCCO[N+](=O)[O-] [Example XIV, 3,5-Dimethoxycarbonyl-2,6-dimethyl-4-[2-(2-nitroxy-ethoxy)-5-nitrophenyl]-1,4-dihydropyridine] | 80 | 
24 | CCOC(=O)C1=C(C)NC(C)=C(C(=O)OC)C1c1ccccc1OCCCCO[N+](=O)[O-] (stereo not shown) [Example XXIX, 2,6-Dimethyl-3-ethoxycarbonyl-5-methoxycarbonyl-4-[2-(4-nitroxybutoxy)phenyl]-1,4-dihydropyridine×2H2 O] | 2.6 | 
